Measured values published in publication PMC5804415, “Comparison of ^68Ga-DOTA-Siglec-9 and ^18F-Fluorodeoxyribose-Siglec-9: Inflammation Imaging and Radiation Dosimetry” (Contrast Media & Molecular Imaging, 2017).
Positions of bridges follow the written chain, without caps; N, C: chain ends. Residues, ends and D or L forms follow the SMILES beside them. *: point of attachment. DOTA = O=C(O)CN1CCN(CC(=O)O)CCN(CC(=O)*)CCN(CC(=O)O)CC1; AEEA = NCCOCCOCC(=O)O

What was measured:
[1] = tested on: rats with skin/muscle inflammation (turpentine oil); assay type: in vivo, rat; details: rat, in vivo, iv
Method: Rats were divided into two groups with Group 1 being intravenously (i.v.) given ^68Ga-DOTA-Siglec-9 (16 ± 2.9 MBq, n = 8) and Group 2 ^18F-FDR-Siglec-9 (18 ± 5.1 MBq, n = 8). A 60 min dynamic PET acquisition was performed on a High Resolution Research Tomograph (HRRT; Siemens Medical Solutions, Knoxville, TN, USA). The PET data were reconstructed into 5 × 60 s and 11 × 300 s frames using an ordered-subsets expectation maximization 3D algorithm (OSEM3D). Quantitative PET image analysis was performed by defining regions of interest (ROIs) within the inflamed area (on the left foreleg), control area (on the right foreleg), kidneys, lungs, heart, liver, and urinary bladder using […] 2.8 software (Turku PET Centre). Results were expressed as standardized uptake values (SUV) and time-activity curves. SUV was calculated as a ratio of tissue radioactivity concentration (Bq/mL) and given radioactivity dose (Bq) divided by animal's body weight.

[2] = SD
Method: Absorbed doses of ^68Ga-DOTA-Siglec-9 and ^18F-FDR-Siglec-9 were calculated with the OLINDA/EXM version 1.0 software (organ level internal dose assessment and exponential modeling; Vanderbilt University, Nashville, TN, USA), which applies the MIRD schema (developed by the Medical Internal Radiation Dose committee of the Society of Nuclear Medicine) for radiation dose calculations in internal exposure. The software includes radionuclide information and selection of human body phantoms. The residence times derived from the rat data were integrated as the area under the time-activity curve. The residence times were converted into corresponding human values by multiplication with a factor to scale the organ and body weights: (WBody,rat/WOrgan,rat)×(WOrgan,human/WBody,human), where WBody,rat and WBody,human are the body weights of rat and human (a 70-kg male), respectively; and WOrgan,rat and WOrgan,human are the organ weights of rat and human (organ weights for a 70 kg male), respectively [14].

[3] = tested on: LDLR^−/−ApoB^100/100 atherosclerotic mice; set-up: method as in PMID 27731409; details: mouse, in vivo; cited from earlier work
in vivo = details: Sprague-Dawley, rat, iv, total radioactivity, Ex vivo biodistribution, SD
Text: Twenty-four hours before the PET studies, Sprague-Dawley rats (weight, 350 ± 22 g; n = 16) were subcutaneously injected with turpentine oil (Sigma-Aldrich) to induce focal acute, sterile inflammation [12]. Before the injection, rats were shaved on the both forelegs. Inflamed area on the left foreleg contained both skin and muscle. The intact, contralateral side (right foreleg) was used as a control.
After PET imaging, rats were sacrificed and various tissues were excised and weighed, and their radioactivity levels were measured with a gamma counter (1480 Wizard 3′′, PerkinElmer, Turku, Finland). The ex vivo biodistribution results were expressed as a percentage of the injected radioactivity dose per gram of tissue (% ID/g) and target-to-background ratio.

time of peak uptake in the inflamed area after the i.v. bolus injection [1]: about 10 min
Human dose equivalent estimate, Adrenals [2]: 0.014 ± 0.0012 mSv/MBq
Human dose equivalent estimate, Brain [2]: 0.012 ± 0.00077 mSv/MBq
Human dose equivalent estimate, Breasts [2]: 0.011 ± 0.00064 mSv/MBq
Human dose equivalent estimate, Gallbladder wall [2]: 0.014 ± 0.00065 mSv/MBq
Human dose equivalent estimate, Heart wall [2]: 0.0083 ± 0.0010 mSv/MBq
Human dose equivalent estimate, Kidneys [2]: 0.15 ± 0.12 mSv/MBq
Human dose equivalent estimate, Liver [2]: 0.012 ± 0.0024 mSv/MBq
Human dose equivalent estimate, Lower large intestine wall [2]: 0.015 ± 0.00077 mSv/MBq
Human dose equivalent estimate, Lungs [2]: 0.0044 ± 0.00054 mSv/MBq
Human dose equivalent estimate, Muscle [2]: 0.0050 ± 0.00018 mSv/MBq
Human dose equivalent estimate, Osteogenic cells [2]: 0.017 ± 0.00094 mSv/MBq
Human dose equivalent estimate, Ovaries [2]: 0.015 ± 0.00064 mSv/MBq
Human dose equivalent estimate, Pancreas [2]: 0.014 ± 0.00085 mSv/MBq
Human dose equivalent estimate, Red marrow [2]: 0.010 ± 0.00037 mSv/MBq
Human dose equivalent estimate, Skin [2]: 0.010 ± 0.00054 mSv/MBq
Human dose equivalent estimate, Small intestine [2]: 0.014 ± 0.00047 mSv/MBq
Human dose equivalent estimate, Spleen [2]: 0.014 ± 0.0011 mSv/MBq
Human dose equivalent estimate, Stomach wall [2]: 0.013 ± 0.00065 mSv/MBq
Human dose equivalent estimate, Testes [2]: 0.013 ± 0.00062 mSv/MBq
Human dose equivalent estimate, Thymus [2]: 0.011 ± 0.00068 mSv/MBq
Human dose equivalent estimate, Thyroid [2]: 0.011 ± 0.00072 mSv/MBq
Human dose equivalent estimate, Total body [2]: 0.013 ± 0.00041 mSv/MBq
Human dose equivalent estimate, Upper large intestine wall [2]: 0.014 ± 0.00046 mSv/MBq
Human dose equivalent estimate, Urinary bladder wall [2]: 0.20 ± 0.087 mSv/MBq
Human dose equivalent estimate, Uterus [2]: 0.018 ± 0.0017 mSv/MBq
Human effective dose estimate [2]: 0.024 ± 0.0041 mSv/MBq
Normalized number of disintegrations, Heart wall [2]: 0.0029 ± 0.00072 h
Normalized number of disintegrations, Kidneys [2]: 0.093 ± 0.081 h
Normalized number of disintegrations, Liver [2]: 0.033 ± 0.0097 h
Normalized number of disintegrations, Lungs [2]: 0.0026 ± 0.0011 h
Normalized number of disintegrations, Muscle [2]: 0.054 ± 0.0088 h
Normalized number of disintegrations, Total body [2]: 1.3 ± 0.085 h
Normalized number of disintegrations, Urinary bladder wall [2]: 0.17 ± 0.076 h
tissue uptake at 1 h (in vivo; Adipose tissue, BAT): 0.024 ± 0.026 %ID/g
tissue uptake at 1 h (in vivo; Adipose tissue, WAT): 0.027 ± 0.014 %ID/g
tissue uptake at 1 h (in vivo; Blood): 0.099 ± 0.04 %ID/g
tissue uptake at 1 h (in vivo; Bone (femoral)): 0.02 ± 0.0089 %ID/g
tissue uptake at 1 h (in vivo; Bone marrow): 0.039 ± 0.012 %ID/g
tissue uptake at 1 h (in vivo; Brain): 0.0062 ± 0.0049 %ID/g
tissue uptake at 1 h (in vivo; Control area): 0.051 ± 0.0063 %ID/g
tissue uptake at 1 h (in vivo; Heart): 0.03 ± 0.011 %ID/g
tissue uptake at 1 h (in vivo; Inflamed area): 0.12 ± 0.032 %ID/g
tissue uptake at 1 h (in vivo; Kidneys): 2.8 ± 1.8 %ID/g
tissue uptake at 1 h (in vivo; Liver): 0.32 ± 0.16 %ID/g
tissue uptake at 1 h (in vivo; Lungs): 0.079 ± 0.035 %ID/g
tissue uptake at 1 h (in vivo; Muscle): 0.019 ± 0.0091 %ID/g
tissue uptake at 1 h (in vivo; Pancreas): 0.024 ± 0.0024 %ID/g
tissue uptake at 1 h (in vivo; Plasma): 0.13 ± 0.015 %ID/g
tissue uptake at 1 h (in vivo; Small intestine): 0.06 ± 0.016 %ID/g
tissue uptake at 1 h (in vivo; Spleen): 0.19 ± 0.11 %ID/g
tissue uptake at 1 h (in vivo; male, Testis): 0.035 ± 0.031 %ID/g
SMILES: CC(C)C[C@@H]1NC(=O)CNC(=O)[C@H](CCCNC(=N)N)NC(=O)[C@H](Cc2c[nH]c3ccccc23)NC(=O)[C@H](CO)NC(=O)[C@H](CC(C)C)NC(=O)[C@H](CO)NC(=O)[C@H](CC(C)C)NC(=O)[C@H](CCCNC(=N)N)NC(=O)[C@H](C)NC(=O)[C@@H](NC(=O)COCCOCCNC(=O)CN2CCN(CC(=O)O)CCN(CC(=O)O)CCN(CC(=O)O)CC2)CSSC[C@@H](C(=O)N2CCC[C@H]2C(=O)N[C@@H](CO)C(=O)N[C@@H](CCCCN)C(=O)O)NC(=O)[C@H](CC(C)C)NC(=O)[C@H]([C@@H](C)O)NC1=O [^68Ga-DOTA-Siglec-9, metal not drawn] ({DOTA-AEEA}-CARLSLSWRGLTLCPSK-OH; disulfide 1-14)
aortic uptake, previously reported [3]: 0.83 ± 0.33 % ID/g
